In US10800788B2, “4-(aryl)-N-(3-alkoxyfuro[2,3-b]pyrazin-2-yl)-piperazine-1-carboxamide derivative and antiproliferative effect thereof” (Dongguk University Industry-Academic Cooperation Foundation, priority 2016, dated 2020):

Tests used:
[1] = tested on: PANC-1 (pancreatic cancer) cell line; assay: Cell growth inhibition experiment (SRB), PANC-1; assay type: cell-based; conditions: Homo sapiens, PANC-1, 96 h, 96 hours incubation
Method: (§1) The cell lines below were used in order to confirm the efficacy of the compounds synthesized in Examples 1 to 60. Human PANC-1 (pancreatic cancer) and MDA-MB-231 (breast cancer) cell lines were obtained from the American Type Culture Collection (ATCC; Manassas, Va.); and HN31 (head and neck cancer) and UMRC2 (kidney cancer) cell lines were secured from the United States National Institutes of Health (Bethesda, Md.). The MDA-MB-231, UMRC2, HN31, and PANC-1 cell lines were cultured in Dulbecco modified Eagle medium (DMEM; Invitrogen, Carlsbad, Calif.) containing FBS (10%), HEPES (10 mM), penicillin (100 U/mL), and streptomycin (100 μg/mL). All cell lines were cultured in an incubator (37° C., 5% CO2).
(§2) The 4-(aryl)-N-(3-alkoxyfuro[2,3-b]pyrazin-2-yl)-piperazine-1-carboxamide derivative compounds synthesized according to Examples 1 to 60 of the present invention were treated with various human tissue-derived cancer cell lines cultured according to Experimental Example 1, and thus the inhibitory effect of the growth of human cancer cells was confirmed. The cell growth inhibition experiment was conducted using the sulforhodamine B (SRB) technique (Skehan et al., J. National Cancer Institute, 1990, 82: 1107-1112). Specifically, each cell line was seeded in a 96-well plate at a density of 2 to 3×10^3 cells/well, cultured overnight, and then treated with the 4-(aryl)-N-(3-alkoxyfuro[2,3-b]pyrazin-2-yl)-piperazine-1-carboxamide derivative compounds of the present invention. The experiment was repeated 3 times for each compound. Cells treated with each compound were additionally incubated for 96 hours, fixed with 10% trichloroacetic acid (TCA), and then left at 4° C. for 1 hour. The resultant was washed 3 times with distilled water. Thereafter, each cell was treated with 0.4% sulforhodamine B dissolved in 1% acetic acid, stained for 30 minutes, and then washed 4 times with 1% acetic acid. The resultant was dried in the air. After shaking the resultant in Tris solution (10 mM) for 5 minutes, the absorbance was measured at 530 nm using a Benchmark Plus Microplate reader (Bio-Rad Laboratories, Hercules, Calif.).
(§3) In order to convert the OD530 value to the number of viable cells per each well, the measured OD530 value was compared to the standard OD530-vs.-cell number curve of each cell line. The percent survival was calculated using the following formula: % survival=Nlive cells(test)/Nlive cells(control)×100

[2] = tested on: MDA-MB-231 (breast cancer) cell line; assay: Cell growth inhibition experiment (SRB), MDA-MB-231; assay type: cell-based, human; conditions: Homo sapiens, MDA-MB-231, 96 h, 96 hours incubation
Method: as §1, §2, §3

[3] = tested on: HN31 (head and neck cancer) cell line; assay: Cell growth inhibition experiment (SRB), HN31; assay type: cell-based, human; conditions: Homo sapiens, 96 h, 96 hours incubation
Method: as §1, §2, §3

[4] = tested on: HUVEC; assay: Cell growth inhibition experiment (SRB), HUVEC; assay type: cell-based, human; conditions: Homo sapiens, HUVEC, 96 h, 96 hours incubation, read-out: IC50 (μM) […]
Method: as §2, §3

[5] = tested on: A549; assay: Cell growth inhibition experiment (SRB), A549; assay type: cell-based; conditions: Homo sapiens, A549, 96 h, 96 hours incubation, read-out: IC50 (μM) for cancer cell line A549
Method: as §2, §3

[6] = tested on: HT29; assay: Cell growth inhibition experiment (SRB), HT29; assay type: cell-based, human; conditions: Homo sapiens, HT-29, 96 h, 96 hours incubation, read-out: IC50 (μM) for cancer cell line HT29
Method: as §2, §3

[7] = tested on: SK-OV-3; assay: Cell growth inhibition experiment (SRB), SK-OV-3; assay type: cell-based, human; conditions: Homo sapiens, SK-OV-3, 96 h, 96 hours incubation, read-out: IC50 (μM) for cancer cell line SK-OV-3
Method: as §2, §3

[8] = tested on: UMRC2 (kidney cancer) cell line; assay: Cell growth inhibition experiment (SRB), UMRC2; assay type: cell-based, human; conditions: Homo sapiens, UMRC2, 96 h, 96 hours incubation
Method: as §1, §2, §3

[9] = tested on: HEK293; assay: Cell growth inhibition experiment (SRB), HEK293; assay type: cell-based, human; conditions: Homo sapiens, HEK293, 96 h, 96 hours incubation, read-out: IC50 (μM) for cancer cell line HEK293
Method: as §2, §3

| Compound | IC50 [1] [µM] | IC50 [2] [µM] | IC50 [3] [µM] | IC50 [4] [µM] | IC50 [5] [µM] | IC50 [6] [µM] | IC50 [7] [µM] | IC50 [8] [µM] | IC50 [9] [µM] |
| --- | --- | --- | --- | --- | --- | --- | --- | --- | --- |
| CCOc1nc2oc(C)cc2nc1NC(=O)N1CCN(c2cc(C)cc(OC)c2)CC1 [Example 32, N-(3-Ethoxy-6-methylfuro[2,3-b]pyrazin-2-yl)-4-(3-methoxy-5-methylphenyl)piperazine-1-carboxamide] | 0.32 | 0.44 | 1.63 | < 2.5 | 1.39 | < 2.5 | < 2.5 | 0.52 | 1.12 |
| CCOc1nc2oc(Cl)cc2nc1NC(=O)N1CCN(c2cc(F)cc(OC)c2)CC1 [Example 53, N-(6-Chloro-3-ethoxyfuro[2,3-b]pyrazin-2-yl)-4-(3-fluoro-5-methoxyphenyl)piperazine-1-carboxamide] | 0.56 | 0.48 | 0.45 | 1.88 | 1.68 | 1.67 | 1.91 | 0.32 | 1.98 |
| CCOc1nc2oc(Cl)cc2nc1NC(=O)N1CCN(c2cc(OC)cc(OC)c2)CC1 [Example 51, N-(6-Chloro-3-ethoxyfuro[2,3-b]pyrazin-2-yl)-4-(3,5-dimethoxyphenyl)piperazine-1-carboxamide] | 1.58 | 0.32 | 1.45 | < 2.5 | < 2.5 | < 2.5 | < 2.5 | 1.68 | < 2.5 |
| COc1nc2oc(Cl)cc2nc1NC(=O)N1CCN(c2cc(C(F)(F)F)cc(C(F)(F)F)c2)CC1 [Example 49, 4-(3,5-Bis(trifluoromethyl)phenyl)-N-(6-chloro-3-methoxy-furo[2,3-b]pyrazin-2-yl)piperazine-1-carboxamide] | 1.68 | 0.32 | 1.17 | < 2.5 | < 2.5 | < 2.5 | < 2.5 | 1.03 | < 2.5 |
| COc1nc2oc(Cl)cc2nc1NC(=O)N1CCN(c2cc(F)cc(F)c2)CC1 [Example 47, N-(6-Chloro-3-methoxyfuro[2,3-b]pyrazin-2-yl)-4-(3,5-difluorophenyl)piperazine-1-carboxamide] | 0.41 | 0.43 | 0.68 | 1.87 | 0.57 | 1.92 | 1.93 | 0.68 | 0.63 |
| CCOc1nc2oc(C)cc2nc1NC(=O)N1CCN(c2cc(C(F)(F)F)cc(C(F)(F)F)c2)CC1 [Example 39, 4-(3,5-Bis(trifluoromethyl)phenyl)-N-(3-ethoxy-6-methylfuro[2,3-b]pyrazin-2-yl)piperazine-1-carboxamide] | < 2.5 | < 2.5 | < 2.5 | < 2.5 | < 2.5 | < 2.5 | < 2.5 | < 2.5 | < 2.5 |
| CCOc1nc2oc(C)cc2nc1NC(=O)N1CCN(c2cc(C)cc(F)c2)CC1 [Example 36, N-(3-Ethoxy-6-methylfuro[2,3-b]pyrazin-2-yl)-4-(3-fluoro-5-methylphenyl)piperazine-1-carboxamide] | 0.12 | 0.45 | 0.36 | 1.12 | 1.32 | 1.12 | 1.12 | 0.36 | 1.32 |
| CCOc1nc2oc(C)cc2nc1NC(=O)N1CCN(c2cc(OC)cc(OCCN(C)C)c2)CC1 [Example 34, 4-(3-(2-(Dimethylamino)ethoxy)-5-methoxyphenyl)-N-(3-ethoxy-6-methylfuro[2,3-b]pyrazin-2-yl)piperazine-1-carboxamide] | 0.44 | 0.36 | 1.02 | < 2.5 | 0.68 | < 2.5 | < 2.5 | 1.21 | 0.44 |
| COc1cc(C)cc(N2CCN(C(=O)Nc3nc4cc(Cl)oc4nc3OC)CC2)c1 [Example 42, N-(6-Chloro-3-methoxyfuro[2,3-b]pyrazin-2-yl)-4-(3-methoxy-5-methylphenyl)piperazine-1-carboxamide] | 1.23 | 0.36 | 1.68 | 1.47 | 1.87 | 1.87 | < 2.5 | 1.68 | 1.37 |
| CCOc1nc2oc(Cl)cc2nc1NC(=O)N1CCN(c2cc(OC)cc(OCCN(C)C)c2)CC1 [Example 54, N-(6-Chloro-3-ethoxyfuro[2,3-b]pyrazin-2-yl)-4-(3-(2-(dimethylamino)ethoxy)-5-methoxyphenyl)piperazine-1-carboxamide] | 1.88 | 1.68 | 1.78 | 1.75 | 1.86 | < 2.5 | < 2.5 | 1.32 | 1.65 |
| COc1nc2oc(C)cc2nc1NC(=O)N1CCN(c2cc(C)cc(C)c2)CC1 [Example 25, 4-(3,5-Dimethylphenyl)-N-(3-methoxy-6-methylfuro[2,3-b]pyrazin-2-yl)piperazine-1-carboxamide] | 0.08 | 0.15 | 0.17 | 0.13 | 0.22 | 0.25 | 0.63 | < 2.5 | 0.36 |
| COc1cc(OC)cc(N2CCN(C(=O)Nc3nc4cc(Cl)oc4nc3OC)CC2)c1 [Example 41, N-(6-Chloro-3-methoxyfuro[2,3-b]pyrazin-2-yl)-4-(3,5-dimethoxyphenyl)piperazine-1-carboxamide] | 0.36 | 0.51 | 0.68 | 1.73 | 1.87 | 1.87 | < 2.5 | 0.32 | 1.66 |
| COc1nc2occc2nc1NC(=O)N1CCN(c2cc(C)cc(C)c2)CC1 [Example 5, 4-(3,5-Dimethylphenyl)-N-(3-methoxyfuro[2,3-b]pyrazin-2-yl)piperazine-1-carboxamide] | 1.32 | 1.12 | 2.35 | < 2.5 | < 2.5 | < 2.5 | < 2.5 | 1.72 | < 2.5 |
| COc1nc2oc(C)cc2nc1NC(=O)N1CCN(c2cc(C)cc(F)c2)CC1 [Example 26, 4-(3-Fluoro-5-methylphenyl)-N-(3-methoxy-6-methylfuro[2,3-b]pyrazin-2-yl)piperazine-1-carboxamide] | < 2.5 | 1.32 | < 2.5 | < 2.5 | < 2.5 | < 2.5 | < 2.5 | 1.56 | < 2.5 |
| COc1nc2oc(Cl)cc2nc1NC(=O)N1CCN(c2cccc(OC(F)(F)F)c2)CC1 [Example 50, N-(6-Chloro-3-methoxy-furo[2,3-b]pyrazin-2-yl)-4-(3-(trifluoromethoxy)phenyl)piperazine-1-carboxamide] | < 2.5 | < 2.5 | < 2.5 | < 2.5 | < 2.5 | < 2.5 | < 2.5 | < 2.5 | < 2.5 |
| COc1nc2oc(Cl)cc2nc1NC(=O)N1CCN(c2cc(C)cc(C)c2)CC1 [Example 45, N-(6-Chloro-3-methoxyfuro[2,3-b]pyrazin-2-yl)-4-(3,5-dimethylphenyl)piperazine-1-carboxamide] | 0.68 | 0.69 | 1.68 | < 2.5 | 1.81 | < 2.5 | < 2.5 | 0.32 | 2.01 |
